# Reference: patent US20130344026A1, “Dimeric Smac Mimetics” (priority 2009, published 2013)
# Where two headings read alike, the source gives them in different places.
# Key:
# [1] = system: HCC461; experiment: cell viability assay in HCC461, compound alone; type: cell-based
# [2] = system: PANC-1 cells; experiment: cell viability assay in PANC-1 cells (compound alone, + 100 ng/ml TNFa, + 300 ng/ml TRAIL); type: cell-based
# [3] = HCC461, HCC461, Tables 6-9, read-out: IC50 (μM) in cell viability assay in HCC461
# [4] = HCC461, HCC461 cells, compound alone, read-out: IC50 (uM) in cell viability assay in HCC461
# [5] = Homo sapiens, PANC-1, compound alone, Tables 6-10, read-out: IC50 (μM) in cell viability assay in PANC-1 cells: Compound alone
# [6] = with 100 ng/ml TNFa, Tables 6-10, read-out: IC50 (μM) in cell viability assay in PANC-1 cells: Compound + 100 ng/ml TNFa
# [7] = with 300 ng/ml TRAIL, Tables 6-10, read-out: IC50 (μM) in cell viability assay in PANC-1 cells: Compound + 300 ng/ml TRAIL
# [8] = Homo sapiens, PANC-1, compound alone, Tables 15-18, read-out: IC50 (uM) in cell viability assay in PANC-1 cells: Cmpnd alone
SMILES,"IC50 [2, 5] [µM]","IC50 [2, 6] [µM]","IC50 [2, 7] [µM]",further results
CN[C@@H](C)C(=O)N[C@@H](CCCCNC(=O)c1cccc(C(=O)N[C@H]2C[C@@H](C(=O)N[C@@H]3CCCc4ccccc43)N(C(=O)[C@@H](NC(=O)[C@H](C)NC)C(C)(C)C)C2)c1)C(=O)N1CCCC[C@H]1C(=O)N[C@@H]1CCCc2ccccc21 [Compound 143],,,,"IC50 [1, 3]: 0.027 µM"
CN[C@@H](C)C(=O)N[C@H](C(=O)N1C[C@@H](NC(=O)C/C=C/CC(=O)N[C@H]2C[C@@H](C(=O)N[C@@H]3CCCc4ccccc43)N(C(=O)[C@@H](NC(=O)[C@H](C)NC)C(C)(C)C)C2)C[C@H]1C(=O)N[C@@H]1CCCc2ccccc21)C(C)(C)C [Compound P3-32],,,,"IC50 [1, 4]: 0.006 µM"
CN[C@@H](C)C(=O)NC(C(=O)N1C[C@@H](NC(=O)c2cccc(C(=O)NCCCC[C@H](NC(=O)[C@H](C)NC)C(=O)NC(C(=O)N3CCCCC3)C(C)(C)C)c2)C[C@H]1C(=O)N[C@@H]1CCCc2ccccc21)C(C)(C)C (stereo partly drawn) [Compound 151],,,,"IC50 [1, 3]: 0.297 µM"
CN[C@@H](C)C(=O)N[C@H](C(=O)N1C[C@@H](NC(=O)c2cccc(C(=O)N[C@H]3C[C@@H](C(=O)NC4CCCC5CCCCC54)N(C(=O)[C@@H](NC(=O)[C@H](C)NC)C(C)(C)C)C3)c2)C[C@H]1C(=O)NC1CCCC2CCCCC21)C(C)(C)C (stereo partly drawn) [Compound P3-57],,,,"IC50 ([1]; HCC461 cells, compound alone, read-out: IC50 (uM) in cell viability assay in HCC461): 1.69 µM"
CN[C@@H](C)C(=O)N[C@@H](CCC(=O)N[C@H]1CC(C(=O)N[C@H](C)c2ccccc2)N(C(=O)[C@@H](NC(=O)[C@H](C)NC)C(C)(C)C)C1)C(=O)N[C@H](C(=O)N[C@@H](C)C(C)C)C(C)(C)C (stereo partly drawn) [Compound 164],,,,"IC50 [1, 3]: > 30 µM"
CC[C@H](NC)C(=O)N[C@@H](CC#CC#CC[C@H](NC(=O)[C@H](CC)NC)C(=O)N1CCC[C@H]1C(=O)N[C@@H]1CCCc2ccccc21)C(=O)N1CCC[C@H]1C(=O)N[C@@H]1CCCc2ccccc21 [Compound P2-8],,,,"IC50 ([1]; HCC461, Tables 15-18, read-out: IC50 (uM) in cell viability assay in HCC461): 0.009 µM"
CN[C@@H](C)C(=O)N[C@H](C(=O)N1C[C@@H](NC(=O)CCCCC(=O)N[C@H]2C[C@@H](C(=O)N[C@@H]3CCCc4ccccc43)N(C(=O)[C@@H](NC(=O)[C@H](C)NC)C(C)(C)C)C2)C[C@H]1C(=O)N[C@@H]1CCCc2ccccc21)C(C)(C)C [Compound P3-22],,,,"IC50 [1, 4]: 0.003 µM"
CN[C@@H](C)C(=O)N[C@H](C(=O)N1C[C@@H](NC(=O)CCC(=O)N[C@H]2C[C@@H](C(=O)NC3CCCc4ccccc43)N(C(=O)[C@@H](NC(=O)[C@H](C)NC)C(C)(C)C)C2)C[C@H]1C(=O)NC1CCCc2ccccc21)C(C)(C)C (stereo partly drawn) [Compound P3-1],,,,"IC50 [1, 4]: 0.022 µM"
CN[C@@H](C)C(=O)N[C@H](C(=O)N1C[C@@H](NC(=O)c2cc(N)cc(C(=O)N[C@H]3C[C@@H](C(=O)N[C@H](C)c4ccccc4)N(C(=O)[C@@H](NC(=O)[C@H](C)NC)C4CCCCC4)C3)c2)C[C@H]1C(=O)N[C@H](C)c1ccccc1)C1CCCCC1 [Compound P3-78],,,,"IC50 [1, 4]: 0.049 µM"
CN[C@@H](C)C(=O)N[C@H](C(=O)N1C[C@@H](NC(=O)c2cc(Br)cc(C(=O)N[C@H]3C[C@@H](C(=O)NC4CCCc5ccccc54)N(C(=O)[C@@H](NC(=O)[C@H](C)NC)C(C)(C)C)C3)c2)CC1C(=O)N[C@@H]1CCCc2ccccc21)C(C)(C)C (stereo partly drawn) [Compound P3-29],,,,"IC50 [1, 4]: 0.016 µM"
CN[C@@H](C)C(=O)N[C@H](C(=O)N1C[C@@H](NC(=O)c2cccc(C(=O)N[C@H]3C[C@@H](C(=O)N[C@@H]4CCCc5ccccc54)N(C(=O)[C@@H](NC(=O)[C@H](C)NC)C(C)C)C3)c2)C[C@H]1C(=O)N[C@@H]1CCCc2ccccc21)C(C)C [Compound P3-55],,,,"IC50 [1, 4]: 0.017 µM"
CN[C@@H](C)C(=O)NC(C(=O)N[C@@H](CCNC(=O)CCc1cn([C@H]2C[C@@H](C(=O)N[C@@H]3CCCc4ccccc43)N(C(=O)[C@@H](NC(=O)[C@H](C)NC)C(C)(C)C)C2)nn1)C(=O)N[C@H](C)C(C)C)C(C)(C)C (stereo partly drawn) [Compound 198],> 1,0.109,0.069,
CN[C@@H](C)C(=O)N[C@@H](CCCCCC[C@H](NC(=O)[C@H](C)NC)C(=O)N1CCC[C@H]1CNC(=O)c1ccccn1)C(=O)N1CCC[C@H]1CNC(=O)c1ccccn1 [Compound 17],> 1,> 1,> 1,
CC[C@H](NC)C(=O)N[C@H](C(=O)N[C@@H](CCNC(=O)c1ccc2cc(C(=O)N[C@H]3C[C@@H](C(=O)N[C@@H]4CCCc5ccccc54)N(C(=O)[C@@H](NC(=O)[C@H](C)NC)C(C)(C)C)C3)ccc2c1)C(=O)N[C@H](C)C(C)C)C1CCCCC1 [Compound H-11],,,,"IC50 [2, 8]: > 1 µM"
CN[C@@H](C)C(=O)NC(C(=O)N1C[C@@H](NC(=O)c2cccc(C(=O)N[C@H]3CC(C(=O)N[C@H](CO)Cc4ccccc4)N(C(=O)[C@@H](NC(=O)[C@H](C)NC)C(C)(C)C)C3)c2)CC1C(=O)N[C@H](CO)Cc1ccccc1)C(C)(C)C (stereo partly drawn) [Compound 43],> 1,0.05,0.048,
CN[C@@H](C)C(=O)N[C@@H](CCCCCC[C@H](NC(=O)[C@H](C)NC)C(=O)N1CCC[C@H]1CNC(=O)c1cc2ccccc2cc1OC)C(=O)N1CCC[C@H]1CNC(=O)c1cc2ccccc2cc1OC [Compound 38],> 1,> 1,> 1,
CN[C@@H](C)C(=O)N[C@H](C(=O)N[C@@H](CCNC(=O)c1ccc(CCc2ccc(C(=O)N[C@@H]3C[C@@H](C(=O)N[C@@H]4CCCc5ccccc54)N(C(=O)[C@@H](NC(=O)[C@H](C)NC)C(C)(C)C)C3)cc2)cc1)C(=O)NC(C)C(C)C)C(C)C (stereo partly drawn) [Compound 201],> 1,0.027,0.057,
CN[C@@H](C)C(=O)NC(C(=O)N1CCC[C@H]1C(=O)NC1CCCc2ccccc21)c1ccc(CCc2ccc([C@H](NC(=O)[C@H](C)NC)C(=O)N3CCC[C@H]3C(=O)NC3CCCc4ccccc43)cc2)cc1 (stereo partly drawn) [Compound P2-35],,,,"IC50 [2, 8]: > 1 µM; IC50 ([2]; with 100 ng/ml TNFa, Tables 15-18, read-out: IC50 (uM) in cell viability assay in PANC-1 cells: Cmpnd + 100 ng/ml TNFa): 0.007 µM; IC50 ([2]; with 300 ng/ml TRAIL, Tables 15-18, read-out: IC50 (uM) in cell viability assay in PANC-1 cells: Cmpnd + 300 ng/ml TRAIL): 0.007 µM"
CN[C@@H](C)C(=O)N[C@H](C(=O)N1C[C@@H](NC(=O)c2cccc(C(=O)N[C@H]3C[C@@H](C(=O)N[C@H](C)c4ccccn4)N(C(=O)[C@@H](NC(=O)[C@H](C)NC)C(C)(C)C)C3)c2)C[C@H]1C(=O)N[C@H](C)c1ccccn1)C(C)(C)C [Compound 26],,> 1,> 1,"IC50 ([2]; compound alone, Tables 6-10, read-out: IC50 (μM) in cell viability assay in PANC-1 cells: Compound alone): > 1 µM"
CN[C@@H](C)C(=O)N[C@H](C(=O)N1CCC[C@H]1C(=O)N[C@H]1c2ccccc2C[C@@H]1OCC#CC#CCO[C@H]1Cc2ccccc2[C@@H]1NC(=O)[C@@H]1CCCN1C(=O)[C@@H](NC(=O)[C@H](C)NC)C(C)(C)C)C(C)(C)C [Compound 121],> 1,0.0013,0.0015,
CN[C@@H](C)C(=O)N[C@@H](CCCCCC[C@H](NC(=O)[C@H](C)NC)C(=O)N[C@H]1c2ccccc2C[C@@H]1NC(=O)c1cc2ccccc2cc1OC)C(=O)N[C@H]1c2ccccc2C[C@@H]1NC(=O)c1cc2ccccc2cc1OC [Compound 58],> 1,> 1,> 1,
CN[C@@H](C)C(=O)N[C@H](C(=O)N[C@@H](CCNC(=O)c1cccc(C(=O)N[C@H]2C[C@@H](C(=O)N[C@@H]3CCCc4ccccc43)N(C(=O)[C@@H](NC(=O)[C@H](C)NC)C(C)(C)C)C2)c1)C(=O)N[C@H](C)C(C)C)C(C)(C)C [Compound 176],> 1,0.0199,0.0388,
CN[C@@H](C)C(=O)N[C@H](C(=O)N1C[C@@H](NC(=O)c2cccc(C(=O)N[C@H]3C[C@@H](C(=O)NCCc4ccc(S(N)(=O)=O)cc4)N(C(=O)[C@@H](NC(=O)[C@H](C)NC)C(C)(C)C)C3)c2)C[C@H]1C(=O)NCCc1ccc(S(N)(=O)=O)cc1)C(C)(C)C [Compound 8],> 1,> 1,> 1,
